Here are results for 18 compounds from patent publication US20120122931A1, “INDOLE DERIVATIVE OR PHARMACEUTICALLY ACCEPTABLE SALT THEREOF” (KISSEI PHARMACEUTICAL CO., LTD., priority 2009, published 2012).

Several values for one entry are separate records, joined by “and”; a condition that tells them apart may be missing. Equal values may be shown once.

The target of one assay is T1, rat EP1 receptor (Rattus norvegicus, UniProt P70597).
T1 construct: expressed in transfected cells; host or cells: COS-1 cells, transient transfection with Lipofectamine 2000
T1 sequence (P70597 1-405): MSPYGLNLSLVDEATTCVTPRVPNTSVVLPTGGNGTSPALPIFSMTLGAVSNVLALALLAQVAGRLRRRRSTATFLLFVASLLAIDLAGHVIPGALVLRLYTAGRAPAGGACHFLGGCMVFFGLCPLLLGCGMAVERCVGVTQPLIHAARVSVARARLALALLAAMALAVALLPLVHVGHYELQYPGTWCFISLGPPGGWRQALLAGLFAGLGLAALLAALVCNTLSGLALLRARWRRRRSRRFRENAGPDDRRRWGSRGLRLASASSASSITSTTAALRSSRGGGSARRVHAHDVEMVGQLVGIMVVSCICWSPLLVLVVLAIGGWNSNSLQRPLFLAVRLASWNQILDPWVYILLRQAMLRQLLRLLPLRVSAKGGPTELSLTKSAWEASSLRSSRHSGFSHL
Put plainly: Test for confirmation of EP1 receptor antagonism: inhibition of prostaglandin E2-induced increase in intracellular calcium concentration (Method A or Method B). Type of assay: cell-based. The settings on record: rat EP1 receptor-expressing cells, prostaglandin E2 10 nM. On the procedure:
(1) Preparation of Rat EP1 Expression vector
Using Rat Kidney BD Marathon-Ready cDNA (Nippon Becton Dickinson Company, Ltd.) as a template, a forward primer shown in SEQ ID NO. 1, and a reverse primer shown in SEQ ID NO. 2, a first run of PCR was carried out using KOD-Plus-Ver 2.0 (Toyobo Co., Ltd.). Further, using this amplification product as a template, a forward primer shown in SEQ ID NO. 3, and a reverse primer shown in SEQ ID NO. 4, a second run of PCR was carried out in the same manner. The amplification product obtained by the second run of PCR was incorporated into a vector (pcDNA3.1 D/V5-His-TOPO (registered trademark), Invitrogen Japan K. K.). By a conventional method, the vector containing this amplification product was introduced to E. coli (One Shot TOP10 Competent Cells, Invitrogen Corporation) to transform. This transformed E. coli was cultured in an LB agar medium for one day. After the culture, colonies were selected and cultured in an LB liquid medium containing 50 μg/mL of ampicillin. After the culture, the vector was purified using a QIAprep Spin Miniprep Kit (Qiagen K. K.). The base sequence of the insertion site of this vector (SEQ ID NO. 5) was compared with the rat EP1 base sequence (Ptger1) registered as an accession number NM_013100 in well-known database (NCBI), and as a result, they all matched except for a single base. Further, the amino acid sequence translated by the base sequence completely matched the amino acid sequence of the rat EP1 receptor registered as an NCBI accession number NP_037232. Therefore, it was confirmed that the cloned gene sequence was a base sequence of the rat EP1 receptor and the obtained amino acid sequence was that of the rat EP1 receptor. The pcDNA3.1 D/V5-His-TOPO (registered trademark) to which the nucleic acid shown in SEQ ID NO. 5 had been inserted was taken as a rat EP1-expressing vector.
(2) Preparation of Rat EP1 Receptor-Expressing Cells
COS-1 cells (Dainippon Sumitomo Pharma Co., Ltd.) were cultured until it reached confluence in an incubator at 37° C. under a 5% CO2 gas condition, using a D-MEM liquid medium (high glucose and L-glutamine contained, Invitrogen Corporation) to which a penicillin-streptomycin solution (Invitrogen Corporation, final concentration: 100 U/mL as benzylpenicillin; 100 μg/mL as streptomycin) as an antibiotic, MEM nonessential amino acids (Invitrogen Corporation, final Concentration: 0.1 mM), and fetal calf serum (Sanko Junyaku Co., Ltd., final concentration: 10%) were added.
(2-2) COS-1 Cell Subculture
The cells that had reached confluence were stripped with 0.05% trypsin/0.53 mM EDTA 4Na (Invitrogen Japan K. K.) and resuspended in the above liquid medium. The resuspended cells were diluted and cultured in the above liquid medium at a spread ratio from 1:4 to 1:8.
(2-3) Preparation of Cells for Introduction of Rat EP1-Expressing Vector
The cells that had reached confluence were stripped with 0.05% trypsin/0.53 mM EDTA.4Na, and resuspended in a D-MEM liquid medium (high glucose and L-glutamine contained, Invitrogen Corporation) to which an MEM nonessential amino acid (final concentration: 0.1 mM) and fetal calf serum (final concentration: 10%) were added. In each well of a Poly D-lysine-coated 96-well microplate (BD BioCoat (registered trademark), Nippon Becton Dickinson Company, Ltd.), this resuspended cell suspension culture was prepared to be 5×10^4 cells/well in 100 μL of the liquid medium, and seeded thereon. After seeding, the cells were cultured in an incubator at 37° C. under a 5% CO2 gas condition. At a point when the cells for introduction of a rat EP1-expressing vector were adhered (about 2 hours after seeding), introduction of the rat EP1-expressing vector was carried out in the following order.
(2-4) Introduction of Rat EP1-Expressing Vector
For introduction of the rat EP1-expressing vector, Lipofectamine 2000 (Invitrogen Japan K. K.) was used. […]
Background: Calcium assays in cells follow changes in intracellular calcium, usually with a dye or a luminescent sensor.

The test system of assay [1] is sulprostone-induced bladder contraction. Put plainly: Inhibitory effect of compound on sulprostone-induced bladder contraction. Type of assay: in vivo. The settings on record: test agent 1.0 mg/kg intravenously, sulprostone 0.3 mg/kg subcutaneously, female SD rats. On the procedure:
Female SD rats were used. Under urethane anesthesia (1.25 g/kg, administered subcutaneously), a tracheal cannula (Size 8, HIBIKI) and a femoral vein cannula for administration (23G needle-equipped PESO) were inserted thereinto. The bladder cannula (PESO) was inserted from the bladder apex. The bladder cannula was connected to a three-way stopcock, and then, one was connected to a pressure transducer and the other was connected to a syringe filled with saline. Saline was injected to the bladder at an injection rate of 3.6 mL/hour and the bladder contraction pressure was recorded at the time of injection with a recorder (RECTI-HORITZ-8K, NEC Corporation). After 10 minutes from stabilization of the bladder contraction pressure during urination, sulprostone was administered subcutaneously (0.3 mg/kg). Then, at the time point when the bladder contraction pressure became constant, a test agent was administered intravenously (1.0 mg/kg). An average bladder contraction pressure during the 10 minutes period before administration of sulprostone was taken as a baseline (0%). Further, an average bladder contraction pressure during the 10 minutes period before administration of the test agent was taken as a maximum bladder contraction pressure (100%). […] The ratio of this measured value to the maximum bladder contraction pressure was calculated by the following equation and taken as an average bladder contraction rate after administration of the test agent: (Average Bladder Contraction Rate after Administration of Test Agent (%))=(Average Bladder Contraction Pressure after Administration of Test Agent)/(Maximum Bladder Contraction Pressure). In addition, the difference between the maximum bladder contraction rate (100%) and the average bladder contraction rate (%) after administration of the test agent was calculated by the following equation and taken as a bladder contraction inhibition rate of the test agent: (Bladder Contraction Inhibition Rate)=100%−(Average Bladder Contraction Rate after Administration of Test Agent (%)).

[2] abbreviates: Method A (Fluo-4 NW, FlexStation).
Where [3] appears, read: Method B (Calcium kit II Fluo 4, FDSS 7000).

With `COc1ccc2c(Cc3cccc(C(=O)O)n3)c(-c3ccccc3)[nH]c2c1` [Example 4-1, 6-(6-methoxy-2-phenyl-1H-indol-3-ylmethyl)pyridine-2-carboxylic acid], the IC50 (commonly the midpoint of a concentration-inhibition curve) on rat EP1 receptor (setting [2]) came out at 10 nM. Also, in assay [1], the “Bladder Contraction Inhibition Rate (%) 15 Minutes” value was 90.1% and the “Bladder Contraction Inhibition Rate (%)” value is 94.2%. On the same counts, the results for `COc1ccc2c(Cc3cccc(C(=O)O)c3)c(-c3ccccc3)[nH]c2c1` [Example 4-2, 3-(6-methoxy-2-phenyl-1H-indol-3-ylmethyl)benzoic acid] are 32 nM, 78.3% and 80.4%. With `COc1ccc2c(Cc3cccc(C(=O)O)n3)c(-c3ccsc3)[nH]c2c1` [Example 11-1, 6-(6-methoxy-2-thiophen-3-yl-1H-indol-3-ylmethyl)pyridine-2-carboxylic acid], the IC50 on rat EP1 receptor (setting [2]) worked out at 11 nM. Besides, in assay [1], the “Bladder Contraction Inhibition Rate (%) 15 Minutes” value is listed as 86.1% and the “Bladder Contraction Inhibition Rate (%)” value was determined as 76.8%. Regarding `COc1ccc2c(Cc3cccc(C(=O)O)n3)c(-c3cccc(F)c3)[nH]c2c1` [Example 11-5, 6-[2-(3-fluorophenyl)-6-methoxy-1H-indol-3-ylmethyl]pyridine-2-carboxylic acid], the IC50 on rat EP1 receptor (setting [3]) turned out to be 14 nM. Further, in assay [1], the “Bladder Contraction Inhibition Rate (%) 15 Minutes” value worked out at 79.7% and the “Bladder Contraction Inhibition Rate (%)” value was 81.9%.

For `COc1cc2[nH]c(-c3ccc(F)cc3)c(Cc3cccc(C(=O)O)n3)c2cc1C` [Example 16-85, 6-[2-(4-fluorophenyl)-6-methoxy-5-methyl-1H-indol-3-ylmethyl]pyridine-2-carboxylic acid], the IC50 on rat EP1 receptor (setting [3]) is 18 nM. The same measure, in the same setting: the same measure for `COc1cc2c(Cc3cccc(C(=O)O)n3)c(-c3ccsc3)[nH]c2cc1Cl` [Example 16-86, 6-(6-chloro-5-methoxy-2-thiophen-3-yl-1H-indol-3-ylmethyl)pyridine-2-carboxylic acid]: 18 nM; for `COc1cc2[nH]c(C(C)(C)C)c(Cc3cccc(C(=O)O)n3)c2cc1Cl` [Example 16-89, 6-(2-tert-butyl-5-chloro-6-methoxy-1H-indol-3-ylmethyl)pyridine-2-carboxylic acid]: 22 nM.

Regarding `Cc1cc2c(Cc3cccc(C(=O)O)n3)c(-c3ccsc3)[nH]c2cc1Cl` [Example 16-92, 6-(6-chloro-5-methyl-2-thiophen-3-yl-1H-indol-3-ylmethyl)pyridine-2-carboxylic acid], the IC50 at rat EP1 receptor (setting [3]) is 30 nM. For the compound `CCOc1cc2[nH]c(-c3ccsc3)c(Cc3cccc(C(=O)O)n3)c2cc1C` [Example 16-93, 6-(6-ethoxy-5-methyl-2-thiophen-3-yl-1H-indol-3-ylmethyl)pyridine-2-carboxylic acid], the IC50 on rat EP1 receptor (setting [3]) came to 46 nM. As for `COc1cc2[nH]c(C(C)(C)C)c(Cc3cccc(C(=O)O)n3)c2cc1F` [Example 16-97, 6-(2-tert-butyl-5-fluoro-6-methoxy-1H-indol-3-ylmethyl)pyridine-2-carboxylic acid], the IC50 on rat EP1 receptor (setting [3]) is 32 nM. As for `COc1cc2[nH]c(C(C)(C)C)c(Cc3cccc(C(=O)O)n3)c2cc1C` [Example 16-98, 6-(2-tert-butyl-6-methoxy-5-methyl-1H-indol-3-ylmethyl)pyridine-2-carboxylic acid], on rat EP1 receptor (setting [3]), the IC50 worked out at 47 nM. Consider `Cc1cc2c(Cc3cccc(C(=O)O)n3)c(-c3ccccc3)[nH]c2cc1C1CC1` [Example 16-100, 6-(6-cyclopropyl-5-methyl-2-phenyl-1H-indol-3-ylmethyl)pyridine-2-carboxylic acid], for which, on rat EP1 receptor (setting [3]), the IC50 was 44 nM and 26 nM. As to `Cc1cc2c(Cc3cccc(C(=O)O)n3)c(-c3ccsc3)[nH]c2cc1C1CC1` [Example 16-102, 6-(6-cyclopropyl-5-methyl-2-thiophen-3-yl-1H-indol-3-ylmethyl)pyridine-2-carboxylic acid], the IC50 on rat EP1 receptor (setting [3]) is 49 nM. Still for that read-out and setting: the same measure for `COc1cc2c(Cc3cccc(C(=O)O)n3)c(-c3ccoc3)[nH]c2cc1Cl` [Example 16-105, 6-(6-chloro-2-furan-3-yl-5-methoxy-1H-indol-3-ylmethyl)pyridine-2-carboxylic acid]: 26 nM; for `CCC(C)c1[nH]c2cc(OC)c(Cl)cc2c1Cc1cccc(C(=O)O)n1` (centres unmarked) [Example 16-107, 6-(2-sec-butyl-5-chloro-6-methoxy-1H-indol-3-ylmethyl)pyridine-2-carboxylic acid]: 40 nM. Regarding `COc1cc2c(Cc3cccc(C(=O)O)n3)c(-c3ccsc3)[nH]c2cc1C` [Example 16-108, 6-(5-methoxy-6-methyl-2-thiophen-3-yl-1H-indol-3-ylmethyl)pyridine-2-carboxylic acid], the IC50 on rat EP1 receptor (setting [3]) amounted to 19 nM. For `COc1cc2[nH]c(C(C)C)c(Cc3cccc(C(=O)O)n3)c2cc1Cl` [Example 16-109, 6-(5-chloro-2-isopropyl-6-methoxy-1H-indol-3-ylmethyl)pyridine-2-carboxylic acid], on rat EP1 receptor (setting [3]), the IC50 came to 35 nM. For `COc1cc2[nH]c(C(C)C)c(Cc3cccc(C(=O)O)n3)c2cc1F` [Example 18-1, 6-(5-fluoro-2-isopropyl-6-methoxy-1H-indol-3-ylmethyl)pyridine-2-carboxylic acid], the IC50 at rat EP1 receptor (setting [3]) amounted to 39 nM.
